ChEMBL document CHEMBL1697781, “Assessment of the health effects of chemicals in humans: II. Construction of an adverse effects database for QSAR modeling” (Curr Drug Discov Technol, 2004)

tested on: Hepatotoxicity; assay: FDA HLAED, alkaline phosphatase increase; details: human
For GGT Increase - Index Value in this document: reference of the scale not given here.
For LDH Increase - Index Value in this document: reference of the scale not given here.

Compound	Alkaline Phosphatase Increase - Activity Score	Alkaline Phosphatase Increase - Index Value	Alkaline Phosphatase Increase - Number of Reports
COCC1=C(C(=O)O)N2C(=O)[C@@H](NC(=O)/C(=N\OC)c3csc(N)n3)[C@H]2SC1 [CEFPODOXIME]	Inactive	1	>= 4
CC=CC1=C(C(=O)O)N2C(=O)[C@@H](NC(=O)[C@H](N)c3ccc(O)cc3)[C@H]2SC1 [CEFPROZIL]	Inactive	0.2	>= 4
CC(C)(O/N=C(\C(=O)N[C@@H]1C(=O)N2C(C(=O)[O-])=C(C[n+]3ccccc3)CS[C@H]12)c1csc(N)n1)C(=O)O [CEFTAZIDIME]	Inactive	0	< 4
Nc1nc(/C(=C/CC(=O)O)C(=O)N[C@@H]2C(=O)N3C(C(=O)O)=CCS[C@H]23)cs1 [CEFTIBUTEN]	Inactive	0	< 4
CO/N=C(\C(=O)N[C@@H]1C(=O)N2C(C(=O)O)=CCS[C@H]12)c1csc(N)n1 [CEFTIZOXIME]	Inactive	2.9	>= 4

tested on: Hepatotoxicity; assay: FDA HLAED, serum glutamic oxaloacetic transaminase (SGOT) increase; details: human

Compound	SGOT Increase - Activity Score	SGOT Increase - Index Value	SGOT Increase - Number of Reports
COCC1=C(C(=O)O)N2C(=O)[C@@H](NC(=O)/C(=N\OC)c3csc(N)n3)[C@H]2SC1 [CEFPODOXIME]	Inactive	1	>= 4
CC=CC1=C(C(=O)O)N2C(=O)[C@@H](NC(=O)[C@H](N)c3ccc(O)cc3)[C@H]2SC1 [CEFPROZIL]	Inactive	0.4	>= 4
CC(C)(O/N=C(\C(=O)N[C@@H]1C(=O)N2C(C(=O)[O-])=C(C[n+]3ccccc3)CS[C@H]12)c1csc(N)n1)C(=O)O [CEFTAZIDIME]	Inactive	0	< 4
Nc1nc(/C(=C/CC(=O)O)C(=O)N[C@@H]2C(=O)N3C(C(=O)O)=CCS[C@H]23)cs1 [CEFTIBUTEN]	Inactive	0	< 4
CO/N=C(\C(=O)N[C@@H]1C(=O)N2C(C(=O)O)=CCS[C@H]12)c1csc(N)n1 [CEFTIZOXIME]	Active	7.8	>= 4

tested on: Hepatotoxicity; assay: FDA HLAED, lactate dehydrogenase (LDH) increase; details: human

Compound	LDH Increase - Activity Score	LDH Increase - Index Value	LDH Increase - Number of Reports
COCC1=C(C(=O)O)N2C(=O)[C@@H](NC(=O)/C(=N\OC)c3csc(N)n3)[C@H]2SC1 [CEFPODOXIME]	Inactive	0.2	< 4
CC=CC1=C(C(=O)O)N2C(=O)[C@@H](NC(=O)[C@H](N)c3ccc(O)cc3)[C@H]2SC1 [CEFPROZIL]	Inactive	0.2	>= 4
CC(C)(O/N=C(\C(=O)N[C@@H]1C(=O)N2C(C(=O)[O-])=C(C[n+]3ccccc3)CS[C@H]12)c1csc(N)n1)C(=O)O [CEFTAZIDIME]	Inactive	0	< 4
Nc1nc(/C(=C/CC(=O)O)C(=O)N[C@@H]2C(=O)N3C(C(=O)O)=CCS[C@H]23)cs1 [CEFTIBUTEN]	Inactive	0	< 4
CO/N=C(\C(=O)N[C@@H]1C(=O)N2C(C(=O)O)=CCS[C@H]12)c1csc(N)n1 [CEFTIZOXIME]	Inactive	0.3	< 4

tested on: Hepatotoxicity; assay: FDA HLAED, gamma-glutamyl transferase (GGT) increase; details: human

Compound	GGT Increase - Activity Score	GGT Increase - Index Value	GGT Increase - Number of Reports
COCC1=C(C(=O)O)N2C(=O)[C@@H](NC(=O)/C(=N\OC)c3csc(N)n3)[C@H]2SC1 [CEFPODOXIME]	Inactive	0.5	< 4
CC=CC1=C(C(=O)O)N2C(=O)[C@@H](NC(=O)[C@H](N)c3ccc(O)cc3)[C@H]2SC1 [CEFPROZIL]	Inactive	0.1	< 4
CC(C)(O/N=C(\C(=O)N[C@@H]1C(=O)N2C(C(=O)[O-])=C(C[n+]3ccccc3)CS[C@H]12)c1csc(N)n1)C(=O)O [CEFTAZIDIME]	Inactive	0	< 4
Nc1nc(/C(=C/CC(=O)O)C(=O)N[C@@H]2C(=O)N3C(C(=O)O)=CCS[C@H]23)cs1 [CEFTIBUTEN]	Inactive	0	< 4
CO/N=C(\C(=O)N[C@@H]1C(=O)N2C(C(=O)O)=CCS[C@H]12)c1csc(N)n1 [CEFTIZOXIME]	Inactive	0	< 4

tested on: Hepatotoxicity; assay: FDA HLAED, serum glutamic pyruvic transaminase (SGPT) increase; details: human

Compound	SGPT Increase - Activity Score	SGPT Increase - Index Value	SGPT Increase - Number of Reports
COCC1=C(C(=O)O)N2C(=O)[C@@H](NC(=O)/C(=N\OC)c3csc(N)n3)[C@H]2SC1 [CEFPODOXIME]	Inactive	0.8	>= 4
CC=CC1=C(C(=O)O)N2C(=O)[C@@H](NC(=O)[C@H](N)c3ccc(O)cc3)[C@H]2SC1 [CEFPROZIL]	Inactive	0.2	>= 4
CC(C)(O/N=C(\C(=O)N[C@@H]1C(=O)N2C(C(=O)[O-])=C(C[n+]3ccccc3)CS[C@H]12)c1csc(N)n1)C(=O)O [CEFTAZIDIME]	Inactive	0	< 4
Nc1nc(/C(=C/CC(=O)O)C(=O)N[C@@H]2C(=O)N3C(C(=O)O)=CCS[C@H]23)cs1 [CEFTIBUTEN]	Inactive	0	< 4
CO/N=C(\C(=O)N[C@@H]1C(=O)N2C(C(=O)O)=CCS[C@H]12)c1csc(N)n1 [CEFTIZOXIME]	Active	4	>= 4

tested on: Hepatotoxicity; assay: FDA HLAED, liver enzyme composite activity; details: human

Compound	Composite Activity - Active	Composite Activity - Marginal	Composite Activity - Score
COCC1=C(C(=O)O)N2C(=O)[C@@H](NC(=O)/C(=N\OC)c3csc(N)n3)[C@H]2SC1 [CEFPODOXIME]	0	0	Inactive
CC=CC1=C(C(=O)O)N2C(=O)[C@@H](NC(=O)[C@H](N)c3ccc(O)cc3)[C@H]2SC1 [CEFPROZIL]	0	0	Inactive
CC(C)(O/N=C(\C(=O)N[C@@H]1C(=O)N2C(C(=O)[O-])=C(C[n+]3ccccc3)CS[C@H]12)c1csc(N)n1)C(=O)O [CEFTAZIDIME]	0	0	Inactive
Nc1nc(/C(=C/CC(=O)O)C(=O)N[C@@H]2C(=O)N3C(C(=O)O)=CCS[C@H]23)cs1 [CEFTIBUTEN]	0	0	Inactive
CO/N=C(\C(=O)N[C@@H]1C(=O)N2C(C(=O)O)=CCS[C@H]12)c1csc(N)n1 [CEFTIZOXIME]	2	0	Active
